Laboratory results: patent publication US20100069341A1, “TETRAHYDRO-PYRANOPYRAZOLE CANNABINOID MODULATORS” (priority 2005, published 2010)
Read-outs that look alike come from different tables or passages of the source.

Columns and labels:
Cannabinoid CB1 Receptor = target: T1, Cannabinoid CB1 Receptor (Homo sapiens, UniProt P21554); test: Binding assay, cannabinoid CB1 receptor ([3H]-CP-55,940 displacement, SK-N-MC cell membranes); details: for inhibition at 0.2 µM: read-out: Cannabinoid CB1 Receptor Binding, percent inhibition
T1 construct: expressed in transfected cells; semi-purified membrane pellet

Cannabinoid CB2 Receptor = target: T2, Cannabinoid CB2 Receptor (Homo sapiens, UniProt P34972); test: Binding assay, cannabinoid CB2 receptor ([3H]-CP-55,940 displacement, SK-N-MC cell membranes); details: test concentration of 0.2 μM, human CB2 in SK-N-MC membranes; for inhibition at 0.2 µM: read-out: Cannabinoid CB2 Receptor Binding, percent inhibition
T2 construct: expressed in transfected cells; semi-purified membrane pellet
In short: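 Membranes from SK-N-MC cells stably expressing human CB2 were incubated 90 min at 30 °C with 0.2 nM [3H]-CP-55,940 in Tris buffer, pH 7.5, with BSA; 10 uM WIN 55,212 defined non-specific binding. Filter-bound counts gave IC50 by linear regression, or % inhibition at 0.2 μM.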

[1] = test concentration of 0.2 μM, human CB1 in SK-N-MC membranes

T2 sequence (P34972 whole entry): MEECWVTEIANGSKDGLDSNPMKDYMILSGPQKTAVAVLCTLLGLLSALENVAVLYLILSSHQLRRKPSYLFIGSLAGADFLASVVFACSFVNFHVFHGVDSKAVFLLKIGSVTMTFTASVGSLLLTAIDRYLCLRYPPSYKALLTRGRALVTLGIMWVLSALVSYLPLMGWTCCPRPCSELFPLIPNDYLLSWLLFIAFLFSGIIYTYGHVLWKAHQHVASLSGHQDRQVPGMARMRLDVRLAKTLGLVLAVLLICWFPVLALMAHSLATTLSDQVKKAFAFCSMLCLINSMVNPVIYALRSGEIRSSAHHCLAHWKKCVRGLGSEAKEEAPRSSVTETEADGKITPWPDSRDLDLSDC
T1 sequence (P21554 whole entry): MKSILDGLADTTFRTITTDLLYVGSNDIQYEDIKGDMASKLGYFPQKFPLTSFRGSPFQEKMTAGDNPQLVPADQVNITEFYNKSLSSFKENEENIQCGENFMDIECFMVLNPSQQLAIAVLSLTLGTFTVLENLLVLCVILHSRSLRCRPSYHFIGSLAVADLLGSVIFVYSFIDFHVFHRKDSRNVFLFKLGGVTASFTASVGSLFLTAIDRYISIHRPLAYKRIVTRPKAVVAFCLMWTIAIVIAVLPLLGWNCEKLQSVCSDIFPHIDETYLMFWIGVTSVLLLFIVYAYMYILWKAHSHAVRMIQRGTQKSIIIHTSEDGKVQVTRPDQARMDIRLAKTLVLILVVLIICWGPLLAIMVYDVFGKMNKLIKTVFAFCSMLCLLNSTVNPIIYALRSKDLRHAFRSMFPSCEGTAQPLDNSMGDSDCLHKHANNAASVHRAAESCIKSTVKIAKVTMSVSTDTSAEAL

| Molecule | inhibition at 0.2 µM (Cannabinoid CB2 Receptor) | inhibition at 0.2 µM (Cannabinoid CB1 Receptor; [1]) | other results |
| --- | --- | --- | --- |
| C[C@H](NC(=O)c1nn(-c2ccc(Cl)cc2Cl)c2c1COC/C2=C\c1ccc(Cl)o1)C1CCCCC1 [Cpd 63, (7Z)-7-(5-chloro-furan-2-ylmethylene)-1-(2,4-dichloro-phenyl)-1,4,6,7-tetrahydro-pyrano[4,3-c]pyrazole-3-carboxylic acid [(S)-1-cyclohexyl-ethyl]-amide] | 10% |  | inhibition at 0.2 µM (Cannabinoid CB1 Receptor): 25% |
| O=C(NN1CCCCC1)c1nn(-c2ccc(Cl)cc2Cl)c2c1COC/C2=C\c1ccc(Cl)o1 [Cpd 64, (7Z)-7-(5-chloro-furan-2-ylmethylene)-1-(2,4-dichloro-phenyl)-1,4,6,7-tetrahydro-pyrano[4,3-c]pyrazole-3-carboxylic acid piperidin-1-ylamide] | 12% | 62% |  |
| O=C(NN1CCCCCC1)c1nn(-c2ccc(Cl)cc2Cl)c2c1COC/C2=C\c1ccc(Cl)o1 [Cpd 65, (7Z)-7-(5-chloro-furan-2-ylmethylene)-1-(2,4-dichloro-phenyl)-1,4,6,7-tetrahydro-pyrano[4,3-c]pyrazole-3-carboxylic acid azepan-1-ylamide] | 9% | 71% | IC50 (Cannabinoid CB1 Receptor): 70 nM |
| C[C@@H](NC(=O)c1nn(-c2ccc(Cl)cc2Cl)c2c1COC/C2=C\c1ccc(Cl)o1)c1ccccn1 [Cpd 66, (7Z)-7-(5-chloro-furan-2-ylmethylene)-1-(2,4-dichloro-phenyl)-1,4,6,7-tetrahydro-pyrano[4,3-c]pyrazole-3-carboxylic acid [(R)-1-pyridin-2-yl-ethyl]-amide] | 10% | 58% |  |
| CC(NC(=O)c1nn(-c2ccc(Cl)cc2Cl)c2c1COC/C2=C\c1ccc(Cl)o1)c1ccccn1 (stereo not drawn) [Cpd 67, (7Z)-7-(5-chloro-furan-2-ylmethylene)-1-(2,4-dichloro-phenyl)-1,4,6,7-tetrahydro-pyrano[4,3-c]pyrazole-3-carboxylic acid (1-pyridin-2-yl-ethyl)-amide] | 7% | 40% |  |
| CC1CCCC(C)N1NC(=O)c1nn(-c2ccc(Cl)cc2Cl)c2c1COC/C2=C\c1ccc(Cl)o1 (stereo not drawn) [Cpd 68, (7Z)-7-(5-chloro-furan-2-ylmethylene)-1-(2,4-dichloro-phenyl)-1,4,6,7-tetrahydro-pyrano[4,3-c]pyrazole-3-carboxylic acid (2,6-dimethyl-piperidin-1-yl)-amide] | 22% | 38% |  |
| C[C@@H](NC(=O)c1nn(-c2ccc(Cl)cc2Cl)c2c1COC/C2=C\c1ccc(Cl)o1)c1ccccc1 [Cpd 69, (7Z)-7-(5-chloro-furan-2-ylmethylene)-1-(2,4-dichloro-phenyl)-1,4,6,7-tetrahydro-pyrano[4,3-c]pyrazole-3-carboxylic acid [(R)-1-phenyl-ethyl]-amide] | 15% | 73% | IC50 (Cannabinoid CB1 Receptor): 50 nM |
| C[C@H](NC(=O)c1nn(-c2ccc(Cl)cc2Cl)c2c1COC/C2=C\c1ccc(Cl)o1)c1ccccc1 [Cpd 70, (7Z)-7-(5-chloro-furan-2-ylmethylene)-1-(2,4-dichloro-phenyl)-1,4,6,7-tetrahydro-pyrano[4,3-c]pyrazole-3-carboxylic acid [(S)-1-phenyl-ethyl]-amide] | 15% | 41% |  |
| O=C(NN1CC2CCCC2C1)c1nn(-c2ccc(Cl)cc2Cl)c2c1COC/C2=C\c1ccc(Cl)o1 (stereo not drawn) [Cpd 71, (7Z)-7-(5-chloro-furan-2-ylmethylene)-1-(2,4-dichloro-phenyl)-1,4,6,7-tetrahydro-pyrano[4,3-c]pyrazole-3-carboxylic acid (hexahydro-cyclopenta[c]pyrrol-2-yl)-amide] | 17% | 71% | IC50 (Cannabinoid CB1 Receptor): 40 nM |
| O=C(NN1CCCC1)c1nn(-c2ccc(Cl)cc2Cl)c2c1COC/C2=C\c1ccc(Cl)o1 [Cpd 72, (7Z)-7-(5-chloro-furan-2-ylmethylene)-1-(2,4-dichloro-phenyl)-1,4,6,7-tetrahydro-pyrano[4,3-c]pyrazole-3-carboxylic acid pyrrolidin-1-ylamide] | 8% | 48% |  |
| COC[C@@H]1CCCN1NC(=O)c1nn(-c2ccc(Cl)cc2Cl)c2c1COC/C2=C\c1ccc(Cl)s1 [Cpd 73, (7Z)-7-(5-chloro-thiophen-2-ylmethylene)-1-(2,4-dichloro-phenyl)-1,4,6,7-tetrahydro-pyrano[4,3-c]pyrazole-3-carboxylic acid [(2S)-2-methoxymethyl-pyrrolidin-1-yl]-amide] | 11% | 57% |  |
| COC[C@H]1CCCN1NC(=O)c1nn(-c2ccc(Cl)cc2Cl)c2c1COC/C2=C\c1ccc(Cl)s1 [Cpd 74, (7Z)-7-(5-chloro-thiophen-2-ylmethylene)-1-(2,4-dichloro-phenyl)-1,4,6,7-tetrahydro-pyrano[4,3-c]pyrazole-3-carboxylic acid [(2R)-2-methoxymethyl-pyrrolidin-1-yl]-amide] | 12% | 65% |  |
| COC[C@H]1CCCN1NC(=O)c1nn(-c2ccc(Cl)cc2Cl)c2c1COC/C2=C\c1ccc(F)cc1 [Cpd 75, (7Z)-1-(2,4-dichloro-phenyl)-7-(4-fluoro-benzylidene)-1,4,6,7-tetrahydro-pyrano[4,3-c]pyrazole-3-carboxylic acid [(2R)-2-methoxymethyl-pyrroldin-1-yl]-amide] | 15% | 68% |  |
| (7Z)-7-(5-chloro-thiophen-2-ylmethylene)-1-(2,4-dichloro-phenyl)-1,4,6,7-tetrahydro-pyrano[4,3-c]pyrazole-3-carboxylic acid [(2S)-2-benzyl-pentyl]-amide [Cpd 59] |  |  | Cannabinoid CB1 Receptor Binding, percent inhibition (Cannabinoid CB1 Receptor; [1]): 38%; Cannabinoid CB2 Receptor Binding, percent inhibition (Cannabinoid CB2 Receptor): 17% |
| (7Z)-azepan-1-yl-[1-(2,4-dichloro-phenyl)-7-(4-fluoro-benzylidene)-1,4,6,7-tetrahydro-pyrano[4,3-c]pyrazol-3-yl]-methanone [Cpd 28] |  |  | IC50 (Cannabinoid CB1 Receptor; human CB1 in SK-N-MC membranes, radioligand CP-55,940 0.2 nM, calculated by linear regression, read-out: Cannabinoid CB1 Receptor Binding, IC50 binding value): 9 nM; Cannabinoid CB1 Receptor Binding, percent inhibition (Cannabinoid CB1 Receptor; [1]): 88%; Cannabinoid CB2 Receptor Binding, percent inhibition (Cannabinoid CB2 Receptor): 10% |
| azepan-1-yl-[1-(2,4-dichloro-phenyl)-7-(4-fluoro-benzyl)-1,4,6,7-tetrahydro-pyrano[4,3-c]pyrazol-3-yl]-methanone [Cpd 25] |  |  | Cannabinoid CB1 Receptor Binding, percent inhibition (Cannabinoid CB1 Receptor; [1]): 50%; Cannabinoid CB2 Receptor Binding, percent inhibition (Cannabinoid CB2 Receptor): 0% |
